Test results from US20130053410A1, “SUBSTITUTED HETEROARYL 2',3',7',7A'-TETRAHYDROSPIRO[PYRROLE-3,6'-PYRROLO[1,2-C]IMIDAZOLE]-1',2(1H,5'H)-DIONE” (priority 2011, published 2013).

molecular target: interaction between p53 and MDM2 proteins (recombinant GST-tagged MDM2, biotinylated p53 peptide) (Homo sapiens, UniProt Q00987); assay: HTRF assay of inhibition of the p53-MDM2 interaction; assay type: binding; details: bsa: 0.02%
Method: The ability of the compounds to inhibit the interaction between p53 and MDM2 proteins was measured by an HTRF (homogeneous time-resolved fluorescence) assay in which recombinant GST-tagged MDM2 binds to a peptide that resembles the MDM2-interacting region of p53. Binding of GST-MDM2 protein and p53-peptide (biotinylated on its N-terminal end) is registered by the FRET (fluorescence resonance energy transfer) between Europium (Eu)-labeled anti-GST antibody and streptavidin-conjugated Allophycocyanin (APC).
[…] Add 10 uL diluted compounds (1:5 dilution in reaction buffer) to each well, mix by shaking. Add 20 uL biotinylated p53 peptide (180 nM working solution) in reaction buffer to each well and mix on shaker. Incubate at 37° C. for 1 h. Add 20 uL streptavidin-APC and Eu-anti-GST antibody mixture (6 nM Eu-anti-GST and 60 nM streptavidin-APC working solution) in TBS buffer with 0.2% BSA, shake at room temperature for 30 minutes and read using a TRF-capable plate reader at 665 and 615 nm (Victor 5, Perkin ElmerWallac). If not specified, the reagents were purchased from Sigma Chemical Co.

interaction between p53 and MDM2 proteins (recombinant GST-tagged MDM2, biotinylated p53 peptide), sequence (Q00987 whole entry): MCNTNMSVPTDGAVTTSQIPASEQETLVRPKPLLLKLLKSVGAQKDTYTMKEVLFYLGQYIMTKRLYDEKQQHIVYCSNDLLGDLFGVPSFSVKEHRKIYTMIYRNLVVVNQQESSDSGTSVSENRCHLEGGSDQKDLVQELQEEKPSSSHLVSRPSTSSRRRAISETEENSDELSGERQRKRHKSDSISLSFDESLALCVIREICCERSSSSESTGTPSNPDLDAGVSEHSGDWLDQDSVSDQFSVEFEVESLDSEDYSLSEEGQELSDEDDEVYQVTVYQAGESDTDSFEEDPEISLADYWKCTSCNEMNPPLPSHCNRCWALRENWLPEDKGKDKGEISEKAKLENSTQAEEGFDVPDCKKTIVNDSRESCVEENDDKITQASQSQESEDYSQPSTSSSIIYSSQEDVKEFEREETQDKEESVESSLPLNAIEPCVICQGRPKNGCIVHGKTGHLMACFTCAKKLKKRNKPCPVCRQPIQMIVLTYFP

IC50 [µM] | Compound
0.102 | COc1cc(C(=O)O)ccc1N1CN2[C@@H](CC(C)(C)C)[C@@]3(C(=O)Nc4cc(C)ncc43)[C@@H](c3cccc(Cl)c3F)[C@@H]2C1=O (racemic) [Example 2, rac-4-((3′R,5S,7S,7aR)-7-(3-chloro-2-fluorophenyl)-6′-methyl-5-neopentyl-1,2′-dioxo-1′,2′,7,7a-tetrahydrospiro[pyrrolo[1,2-c]imidazole-6,3′-pyrrolo[3,2-c]pyridine]-2(1H,3H,5H)-yl)-3-methoxybenzoic acid]
0.0075 | COc1cc(C(N)=O)ccc1N1C(=O)[C@H]2[C@H](c3cccc(Cl)c3F)[C@]3(C(=O)Nc4cc(Cl)ncc43)[C@H](CC(C)(C)C)N2[C@@H]1C [Example 11, 4-((3S,3′R,5S,7S,7aR)-6′-chloro-7-(3-chloro-2-fluorophenyl)-3-methyl-5-neopentyl-1,2′-dioxo-1′,2′,7,7a-tetrahydrospiro[pyrrolo[1,2-c]imidazole-6,3′-pyrrolo[3,2-c]pyridine]-2(1H,3H,5H)-yl)-3-methoxybenzamide]
0.015 | COc1cc(C(=O)O)ccc1N1CN2[C@@H](CC(C)(C)C)[C@@]3(C(=O)Nc4nc(Cl)ccc43)[C@@H](c3cccc(Cl)c3F)[C@@H]2C1=O (racemic) [Example 9, rac-4-((3′R,5S,7S,7aR)-6′-chloro-7-(3-chloro-2-fluorophenyl)-5-neopentyl-1,2′-dioxo-1′,2′,7,7a-tetrahydrospiro[pyrrolo[1,2-c]imidazole-6,3′-pyrrolo[2,3-b]pyridine]-2(1H,3H,5H)-yl)-3-methoxybenzoic acid]
0.0218 | COc1cc(C(=O)O)ccc1N1CN2[C@@H](CC(C)(C)C)[C@@]3(C(=O)Nc4cc(C)cnc43)[C@@H](c3cccc(Cl)c3F)[C@@H]2C1=O (racemic) [Example 16, rac-4-((3′S,5S,7S,7aR)-7-(3-chloro-2-fluorophenyl)-6′-methyl-5-neopentyl-1,2′-dioxo-1′,2′,7,7a-tetrahydrospiro[pyrrolo[1,2-c]imidazole-6,3′-pyrrolo[3,2-b]pyridine]-2(1H,3H,5H)-yl)-3-methoxybenzoic acid]
0.0075 | COc1cc(C(N)=O)ccc1N1C(=O)[C@H]2[C@H](c3cccc(Cl)c3F)[C@]3(C(=O)Nc4cc(Cl)ncc43)[C@H](CC(C)(C)C)N2[C@@H]1CCC1CCOCC1 [Example 14, 4-((3S,3′R,5S,7S,7aR)-6′-chloro-7-(3-chloro-2-fluorophenyl)-5-neopentyl-1,2′-dioxo-3-(2-(tetrahydro-2H-pyran-4-yl)ethyl)-1′,2′,7,7a-tetrahydrospiro[pyrrolo[1,2-c]imidazole-6,3′-pyrrolo[3,2-c]pyridine]-2(1H,3H,5H)-yl)-3-methoxybenzamide]
0.0193 | COc1cc(C(N)=O)ccc1N1CN2[C@@H](CC(C)(C)C)[C@@]3(C(=O)Nc4nc(Cl)ccc43)[C@@H](c3cccc(Cl)c3F)[C@@H]2C1=O (racemic) [Example 10, rac-4-((3′R,5S,7S,7aR)-6′-chloro-7-(3-chloro-2-fluorophenyl)-5-neopentyl-1,2′-dioxo-1′,2′,7,7a-tetrahydrospiro[pyrrolo[1,2-c]imidazole-6,3′-pyrrolo[2,3-b]pyridine]-2(1H,3H,5H)-yl)-3-methoxybenzamide]
0.007 | CC[C@@H]1N(c2ccc(C(N)=O)cc2OC)C(=O)[C@H]2[C@H](c3cccc(Cl)c3F)[C@]3(C(=O)Nc4cc(Cl)ncc43)[C@H](CC(C)(C)C)N12 [Example 12, 4-((3S,3′R,5S,7S,7aR)-6′-chloro-7-(3-chloro-2-fluorophenyl)-3-ethyl-5-neopentyl-1,2′-dioxo-1′,2′,7,7a-tetrahydrospiro[pyrrolo[1,2-c]imidazole-6,3′-pyrrolo[3,2-c]pyridine]-2(1H,3H,5H)-yl)-3-methoxybenzamide]
1.16 | COc1cc(C(N)=O)ccc1N1CN2[C@@H](CC(C)(C)C)[C@]3(C(=O)Nc4cc(C)ncc43)[C@@H](c3cccc(Cl)c3F)[C@@H]2C1=O (racemic) [Example 3b, rac-4-((3′S,5S,7S,7aR)-7-(3-chloro-2-fluorophenyl)-6′-methyl-5-neopentyl-1,2′-dioxo-1′,2′,7,7a-tetrahydrospiro[pyrrolo[1,2-c]imidazole-6,3′-pyrrolo[3,2-c]pyridine]-2(1H,3H,5H)-yl)-3-methoxybenzamide]
0.797 | COc1cc(C(=O)O)ccc1N1CN2[C@@H](CC(C)(C)C)[C@@]3(C(=O)Nc4ccncc43)[C@@H](c3cccc(Cl)c3F)[C@@H]2C1=O (racemic) [Example 5, rac-4-((3′R,5S,7S,7aR)-7-(3-chloro-2-fluorophenyl)-5-neopentyl-1,2′-dioxo-1′,2′,7,7a-tetrahydrospiro[pyrrolo[1,2-c]imidazole-6,3′-pyrrolo[3,2-c]pyridine]-2(1H,3H,5H)-yl)-3-methoxybenzoic acid]
0.0096 | COc1cc(C(N)=O)ccc1N1C(=O)[C@H]2[C@H](c3cccc(Cl)c3F)[C@]3(C(=O)Nc4cc(Cl)ncc43)[C@H](CC(C)(C)C)N2[C@@H]1CO [Example 13, 4-((3S,3′R,5S,7S,7aR)-6′-chloro-7-(3-chloro-2-fluorophenyl)-3-(hydroxymethyl)-5-neopentyl-1,2′-dioxo-1′,2′,7,7a-tetrahydrospiro[pyrrolo[1,2-c]imidazole-6,3′-pyrrolo[3,2-c]pyridine]-2(1H,3H,5H)-yl)-3-methoxybenzamide]
0.0899 | COc1cc(C(N)=O)ccc1N1CN2[C@@H](CC(C)(C)C)[C@@]3(C(=O)Nc4cc(C)ncc43)[C@@H](c3cccc(Cl)c3F)[C@@H]2C1=O (racemic) [Example 3a, rac-4-((3′R,5S,7S,7aR)-7-(3-chloro-2-fluorophenyl)-6′-methyl-5-neopentyl-1,2′-dioxo-1′,2′,7,7a-tetrahydrospiro[pyrrolo[1,2-c]imidazole-6,3′-pyrrolo[3,2-c]pyridine]-2(1H,3H,5H)-yl)-3-methoxybenzamide]
0.0068 | COc1cc(C(N)=O)ccc1N1CN2[C@@H](CC(C)(C)C)[C@@]3(C(=O)Nc4cc(Cl)ncc43)[C@@H](c3cccc(Cl)c3F)[C@@H]2C1=O [Example 1, 4-((3′R,5S,7S,7aR)-6′-chloro-7-(3-chloro-2-fluorophenyl)-5-neopentyl-1,2′-dioxo-1′,2′,7,7a-tetrahydrospiro[pyrrolo[1,2-c]imidazole-6,3′-pyrrolo[3,2-c]pyridine]-2(1H,3H,5H)-yl)-3-methoxybenzamide]
0.096 | COc1cc(C(=O)O)ccc1N1CN2[C@@H](CC(C)(C)C)[C@@]3(C(=O)Nc4ncccc43)[C@@H](c3cccc(Cl)c3F)[C@@H]2C1=O (racemic) [Example 15, rac-4-((3′R,5S,7S,7aR)-7-(3-chloro-2-fluorophenyl)-5-neopentyl-1,2′-dioxo-1′,2′,7,7a-tetrahydrospiro[pyrrolo[1,2-c]imidazole-6,3′-pyrrolo[2,3-b]pyridine]-2(1H,3H,5H)-yl)-3-methoxybenzoic acid]
0.023 | COc1cc2c(cn1)[C@@]1(C(=O)N2)[C@H](CC(C)(C)C)N2CN(c3ccc(C(=O)O)cc3OC)C(=O)[C@H]2[C@@H]1c1cccc(Cl)c1F (racemic) [Example 6, rac-4-((3′R,5S,7S,7aR)-7-(3-chloro-2-fluorophenyl)-6′-methoxy-5-neopentyl-1,2′-dioxo-1′,2′,7,7a-tetrahydrospiro[pyrrolo[1,2-c]imidazole-6,3′-pyrrolo[3,2-c]pyridine]-2(1H,3H,5H)-yl)-3-methoxybenzoic acid]
0.015 | COc1cc2c(cn1)[C@@]1(C(=O)N2)[C@H](CC(C)(C)C)N2CN(c3ccc(C(N)=O)cc3OC)C(=O)[C@H]2[C@@H]1c1cccc(Cl)c1F (racemic) [Example 7, rac-4-((3′R,5S,7S,7aR)-7-(3-chloro-2-fluorophenyl)-6′-methoxy-5-neopentyl-1,2′-dioxo-1′,2′,7,7a-tetrahydrospiro[pyrrolo[1,2-c]imidazole-6,3′-pyrrolo[3,2-c]pyridine]-2(1H,3H,5H)-yl)-3-methoxybenzamide]
